Values after ≈ are worked out from the molar mass of the structure shown.

Among the data in ChEMBL document CHEMBL1133984, “Synthesis, topoisomerase I inhibition and antitumor cytotoxicity of 2,2':6',2"-, 2,2':6',3"- and 2,2':6',4"-terpyridine derivatives” (2001) are GI50 values, retold here.

Common to all, as to assay type: functional
Settings in all cases: Homo sapiens

One experiment has as its system A498. Put plainly: Antitumor cytotoxic activity against A-498 cell line was determined.
The test system of the next experiment is SK-OV-3. Nature of the experiment: Antitumor cytotoxic activity against SK-OV-3 cell line was determined.
The next experiment has as its system PC-3. Put plainly: Antitumor cytotoxic activity against PC-3 cell line was determined.
The test system of a further experiment is A549. Put plainly: Antitumor cytotoxic activity against A-549 cell line was determined.
In the next experiment the test system is SK-MEL-2. Put plainly: Antitumor cytotoxic activity against SK-MEL-2 cell line was determined.
The subject of a further experiment is HCT-15. Nature of the experiment: Antitumor cytotoxic activity against HCT-15 cell line was determined.
The subject of the next experiment is HT-29. Put plainly: Antitumor cytotoxic activity against HT-29 cell line was determined.
Another experiment relates to RPTEC. Nature of the experiment: Antitumor cytotoxic activity against RPTEC cell line was determined.

For `c1ccc(-c2cc(-c3ccccn3)nc(-c3ccccn3)c2)cc1`, the GI50 worked out at 2.5 ng/mL (≈ 0.00808 µM) in the experiment with A498; 120 ng/mL (≈ 0.388 µM) with SK-OV-3; 17 ng/mL (≈ 0.055 µM) in the experiment on PC-3; 560 ng/mL (≈ 1.81 µM) in the experiment on A549; 7500 ng/mL (≈ 24.2 µM) in the experiment with SK-MEL-2; 370 ng/mL (≈ 1.2 µM) in the experiment on HCT-15. The GI50 with HT-29 was 1.4 ng/mL (≈ 0.00453 µM); in the experiment on RPTEC it was 27 ng/mL (≈ 0.0873 µM).
For the molecule `c1ccc(-c2cc(-c3ccco3)cc(-c3ccccn3)n2)nc1`, the GI50 in the experiment with A498 was 0.064 ng/mL (≈ 0.000214 µM); in the experiment on SK-OV-3, 130 ng/mL (≈ 0.434 µM); in the experiment with PC-3, 2.5 ng/mL (≈ 0.00835 µM); with A549 it was 220 ng/mL (≈ 0.735 µM); in the experiment with SK-MEL-2, 9900 ng/mL (≈ 33.1 µM); in the experiment on HCT-15, 100 ng/mL (≈ 0.334 µM). The results for the GI50 with HT-29 and with RPTEC were 2.4 ng/mL (≈ 0.00802 µM) and 4.1 ng/mL (≈ 0.0137 µM), respectively.
Consider `c1ccc(-c2cc(-c3ccsc3)cc(-c3ccccn3)n2)nc1`, for which the GI50 in the experiment with A498 amounted to 0.097 ng/mL (≈ 0.000308 µM); in the experiment with SK-OV-3, 100 ng/mL (≈ 0.317 µM); with PC-3, 1.7 ng/mL (≈ 0.00539 µM); in the experiment with A549 it was 620 ng/mL (≈ 1.97 µM); with SK-MEL-2 it was 890 ng/mL (≈ 2.82 µM); with HCT-15, 290 ng/mL (≈ 0.919 µM). Also, the figures for the 50% growth inhibitory concentration (GI50) in the experiment on HT-29 and in the experiment on RPTEC were 2.7 ng/mL (≈ 0.00856 µM) and 4.7 ng/mL (≈ 0.0149 µM), respectively.
Turning to `c1ccc(-c2cc(-c3cccs3)cc(-c3cccnc3)n2)nc1`, the GI50 with A498 stood at 2.9 ng/mL (≈ 0.00919 µM); in the experiment on SK-OV-3, 52000 ng/mL (≈ 165 µM); in the experiment with PC-3, 31 ng/mL (≈ 0.0983 µM); in the experiment with A549, 78900 ng/mL (≈ 250 µM); in the experiment with SK-MEL-2 it was 77700 ng/mL (≈ 246 µM); with HCT-15, 56100 ng/mL (≈ 178 µM). In addition, the GI50 in the experiment on HT-29 was determined as 190 ng/mL (≈ 0.602 µM); with RPTEC, 56 ng/mL (≈ 0.178 µM).
For `c1ccc(-c2cc(-c3cccs3)cc(-c3ccncc3)n2)nc1`, the GI50 in the experiment with A498 is 840 ng/mL (≈ 2.66 µM); in the experiment on SK-OV-3, 48300 ng/mL (≈ 153 µM); in the experiment with PC-3, 220 ng/mL (≈ 0.698 µM); with A549, 36200 ng/mL (≈ 115 µM); in the experiment with SK-MEL-2, 35200 ng/mL (≈ 112 µM); in the experiment on HCT-15 it was 15100 ng/mL (≈ 47.9 µM). Further, the GI50 came out at 520 ng/mL (≈ 1.65 µM) in the experiment with HT-29 and 650 ng/mL (≈ 2.06 µM) with RPTEC.
As to `c1ccc(-c2cc(-c3cccnc3)nc(-c3ccccn3)c2)cc1`, the concentration for 50% growth inhibition (GI50) in the experiment with A498 is 74 ng/mL (≈ 0.239 µM); in the experiment on SK-OV-3, 49600 ng/mL (≈ 160 µM); in the experiment on PC-3 it was 280 ng/mL (≈ 0.905 µM); in the experiment on A549, 44800 ng/mL (≈ 145 µM); in the experiment with SK-MEL-2 it was 89200 ng/mL (≈ 288 µM); in the experiment on HCT-15 it was 40900 ng/mL (≈ 132 µM). Further, the GI50 with HT-29 came to 330 ng/mL (≈ 1.07 µM); with RPTEC, 360 ng/mL (≈ 1.16 µM).
`c1ccc(-c2cc(-c3ccsc3)cc(-c3cccnc3)n2)nc1`: the concentration for 50% growth inhibition (GI50) in the experiment on A498 was 640 ng/mL (≈ 2.03 µM); with SK-OV-3 it was above 100000 ng/mL; with PC-3 it was 54 ng/mL (≈ 0.171 µM); with A549 it was above 100000 ng/mL; in the experiment on SK-MEL-2, above 100000 ng/mL; in the experiment with HCT-15, above 100000 ng/mL. The GI50 was found to be 360 ng/mL (≈ 1.14 µM) with HT-29 and 310 ng/mL (≈ 0.983 µM) with RPTEC.
In the case of `c1ccc(-c2cc(-c3ccoc3)cc(-c3ccccn3)n2)nc1`, the GI50 in the experiment with A498 came to 0.032 ng/mL (≈ 0.000107 µM); in the experiment on SK-OV-3, 600 ng/mL (≈ 2 µM); in the experiment with PC-3, 4.4 ng/mL (≈ 0.0147 µM); in the experiment with A549, 80 ng/mL (≈ 0.267 µM); in the experiment on SK-MEL-2, 330 ng/mL (≈ 1.1 µM); in the experiment on HCT-15, 60 ng/mL (≈ 0.2 µM). Also, the values for the 50% growth inhibitory concentration (GI50) with HT-29 and in the experiment with RPTEC were 2.6 ng/mL (≈ 0.00869 µM) and 5.8 ng/mL (≈ 0.0194 µM), respectively.
`COc1cccc2c1C(=O)c1c(O)c3c(c(O)c1C2=O)C[C@@](O)(C(=O)CO)C[C@@H]3O[C@H]1C[C@H](N)[C@H](O)[C@H](C)O1` [DOXORUBICIN]: the GI50 stood at 6.4 ng/mL (≈ 0.0118 µM) with A498; 73 ng/mL (≈ 0.134 µM) in the experiment with SK-OV-3; 29 ng/mL (≈ 0.0534 µM) in the experiment on PC-3; 92 ng/mL (≈ 0.169 µM) in the experiment with A549; 59 ng/mL (≈ 0.109 µM) in the experiment with SK-MEL-2; 71 ng/mL (≈ 0.131 µM) in the experiment with HCT-15. The results for the GI50 with HT-29 and in the experiment with RPTEC were 4.6 ng/mL (≈ 0.00846 µM) and 72 ng/mL (≈ 0.132 µM), respectively.
As for `c1ccc(-c2cccc(-c3ccccn3)n2)nc1` [TERPYRIDINE], the GI50 was determined as 0.097 ng/mL (≈ 0.000416 µM) in the experiment on A498; 72 ng/mL (≈ 0.309 µM) in the experiment on SK-OV-3; 0.73 ng/mL (≈ 0.00313 µM) in the experiment on PC-3; 90 ng/mL (≈ 0.386 µM) in the experiment with A549; 100 ng/mL (≈ 0.429 µM) in the experiment with SK-MEL-2; 71 ng/mL (≈ 0.304 µM) in the experiment on HCT-15. Also, the figures for the GI50 with HT-29 and in the experiment on RPTEC were 2.6 ng/mL (≈ 0.0111 µM) and 14 ng/mL (≈ 0.06 µM), respectively.

For orientation: GI50 means the concentration giving 50% growth inhibition.
